Results on two compounds are retold here after patent US20210228463A1, “COMPOSITION FOR FAT FORMATION INHIBITION AND BODY FAT REDUCTION, CONTAINING HYDRANGENOL AS ACTIVE INGREDIENT” (COSMAX BIO CO., LTD., priority 2019, published 2021).

The structures appear in SMILES notation.

One data set has as its system PPARγ. In words: Western blotting of PPARγ expression in adipocytes. The class given is cell-based. The note with it: 3T3-L1 differentiated for 10 days, hydrangenol 2.5 ug/ml, 24 hours, FIG. 3. How it is done:
The mechanism of reducing triglyceride in adipocytes was examined for the hydrangenol-containing hydrangea (Hydrangea serrata) and hydrangenol. A pre-adipocyte 3T3-L1 was differentiated for 10 days and treated with hydrangea (Hydrangea serrata) (25 ug/ml) and hydrangenol (2.5 ug/ml) for 24 hours, respectively. Thereafter, the cells were lysed using a modified LIPA buffer, and each 20 ug thereof was used for analysis. p-mTOR(ab109268, Abcam), p-FOXO1(9461S, Cell Signaling), PPARγ(sc-7273, Santa Cruz), and β-actin(A5316, Sigma) primary antibodies were used for analysis, respectively.
Background: In western blotting, separated proteins are transferred to a membrane and probed.

Data set [1] can be described thus: Effects of WHS on liver and kidney (serum GOT, GPT, BUN). Format: in vivo. Particulars: obese mice (HFD) + oral orlistat. How it is done:
To analyze in vivo anti-obesity efficacy of WHS, animal models of obesity were first prepared. 8-week-old male C57BL/6N mice (specific-pathogen-free (SPF) grade, 20±2 g, Orient Bio) were set into 7 groups as follows, and 10 mice per each group were tested: as normal control groups, normal mice (con) with no high fat diet and no administration, and obese mice (HFD) with induction of obesity by 30% high fat diet and no administration, and as a positive control group, obese mice with oral administration of orlistat which is an anti-obesity agent. As experimental groups, obese mice with oral administration of WHS of 75 mg/kg, 150 mg/kg, or 300 mg/kg, and normal mice with oral administration of WHS of 300 mg/kg were used. Further, experiments were performed by dividing mice into those which were administered with WHS for 12 weeks at the same time with induction of obesity, and those which were administered with WHS after induction of obesity for 10 weeks. WHS was orally administered for 5 days per week during the administration period. A dark: light cycle was maintained at intervals of 12 hours: 12 hours, and mice were allowed to free access to water. To examine whether WHS induced liver and kidney damage in mice, glutamic oxalacetic transaminase (GOT), glutamic pyruvate transaminase (GPT), and blood urea nitrogen (BUN) of the WHS-administered group with induction of obesity were measured by serum analysis using a biochemical analyzer (AU480 Chemistry Analyzer, Beckman coulter, Calif., USA).

Regarding `O=C1OC(c2ccc(O)cc2)Cc2cccc(O)c21` (stereo not shown) [HG, 8-hydroxy-3-(4-hydroxyphenyl)-3,4-dihydroisochromen-1-one], in the data set with PPARγ, the “expression level of peroxisome proliferator-activated receptor gamma y (PPAR)” value is “reduction”.

With `CCCCCCCCCCC[C@@H](C[C@@H]1OC(=O)[C@H]1CCCCCC)OC(=O)[C@H](CC(C)C)NC=O` [Orlistat, orlistat], in data set [1], the BUN turned out to be 19.89 mg/dL, the GOT stood at 63 U/L and the GPT was 17.6 U/L.
